Laboratory results published in patent EP0249561B1, “Compositions using liposome-encapsulated non-steroidal anti-inflammatory drugs” (THE LIPOSOME COMPANY, INC., priority 1986, dated 1987).

Tests used:
[1] = system: male Wistar rats; experiment: Acute ulceration after one oral dose of indomethacin, ulcer lengths counted in excised stomachs (Control 1 / Example 2); type: in vivo; settings: indomethacin 10 mg/kg, starved rats, 4 hours after dosing
Experimental: Twenty 225-250 g male Wistar rats were starved for 18-24 hours prior to dosing. Rats were allowed access to water throughout the study. Ten rats in the free drug control group were then administered one oral dose of indomethacin, dissolved in polyethylene glycol 400 at 7 mg/ml and administered at 10 mg/kg body weight of indomethacin.
Four hours following dosing, rats were sacrificed by carbon dioxide anoxia and their stomachs surgically removed by severing at the cardiac and pyloric sphinctors. The stomachs were opened along the lesser curve, flattened, and washed with saline. Ulcer lengths were counted under a dissecting microscope (American Optical, Buffalo, NY) equipped with an eyepiece micrometer, and lengths were summed and averaged for all animals in a single treatment group.
Ulcer protection was assessed by summing and averaging ulcer lengths (in mm) of the treated group and comparing the value to that of the group administered free drug […]. Percent ulcer inhibition was calculated by dividing the average length of ulceration of the liposome-treated group by the of the corresponding free drug group, and multiplying by 100.
The procedures and materials of Example 1 were employed using 10 mg/kg body weight of indomethacin entrapped in stable plurilamellar vesicles (SPLVs) composed of digalactosyl diglyceride; ulcer protection was assessed as in Example 1.

[2] = system: female Wistar rats; experiment: Acute carageenan paw edema model, paw volume by plethysmometer (Control 2 / Example 3); type: in vivo; settings: indomethacin 2 mg/kg oral, 30 minutes before carageenan, paw volume 2.5 hours after carageenan
Experimental: Eight female Wistar rats weighing approximately 100 grams were allowed free access to food and water. A tatoo line was inscribed onto the right rear paw just below the hair line. Initial paw volume was measured by a transducer-linked plethysmometer (Stoelting Co., Chicago, Illinois) which contained a saline solution. The instrument measures paw volumes by an electrical charge difference across two electrodes resulting from the volume displacement by the paw. A transducer corrects this charge difference into cubic centimeters of volume displaced. Following immersion of the paw in the perspex cell to the inscribed line, a direct measurement of the displacement volume was recorded. Rats were orally dosed with 2 mg/kg body weight of indomethacin in polyethylene glycol 400. At 30 minutes post treatment, rats received an injection of 0.1 ml of 1.5% carageenan in saline […] directly into the rear paw pad. The paw volume was again determined 2.5 hours after the carageenan administration. The edema intensity (EI) was calculated: [formula] and averaged for the eight rats. The paw volumes for the eight rats were averaged and the percent swelling inhibition was calculated: % swelling Reduction: [formula] […] Rats were orally dosed with the liposomes, and percent swelling reduction was calculated as in Example 2.

[3] = system: rats (Wistar); experiment: Inducing gastric ulcers (acute), oral administration (Control 3); type: in vivo; settings: for mm Ulceration + SEM: acute oral, 4 hours
Excerpt: For oral studies, it is convenient to use indomethacin but other nonsteroidal anti-inflammatory therapeutic agent can be similarly employed. This model is also useful in examining other nonsteroidal anti-inflammatory therapeutic agents and other mammals. Simply varying doses will induct gastric ulcers for other agents and mammals in this model. Unlike gastric ulcer protocols, it has been shown that for nonsteroidal anti-inflammatory effects such as indomethacin-induced intestinal lesions to occur, animals must be allowed free acces to food and water during the study.
Indomethacin at dosages between about 2 mg/kg and 10 mg/kg were given in 0.5 ml of neat PEG-400, vehicle or as incorporated into the liposomes at a 200 mg/kg dosage of phospholipid. Four hours following oral administration of test formulations, animals were sacrificed by CO₂ anoxia and the stomachs were excised. For systemically-induced gastric ulceration, dosages of PEG-400 solubilized indomethacin between 4 mg/kg and 50 mg/kg in 0.5 ml were administered subcutaneously. […] Tissue was thoroughly rinsed in saline and the inner mucosal surface was laid flat for microscopic evaluation. Visible ulcers were quantitated using a dissecting microscope (AO Optical, Buffalo, NY) equipped with an eyepiece micrometer. Results using this test were expressed in millimeters of ulceration and in percent inhibition of ulcers where treatment was effected. For all studies, a minimum of 10 animals per experimental group were employed. Experiments were conducted in triplicate, thereby representing a minimum of 30 rats per group.

[4] = system: rats (Wistar); experiment: Inducing intestinal ulceration (chronic), 4-day oral dosing (Control 4); type: in vivo; settings: about 4 mg/kg daily oral over 4 days
Experimental: Single daily oral dosages of indomethacin at about 4 mg/kg in vehicle or in monophasic vesicles were administered over 4 days. Test animals in this example were rats (Wistar). On the fifth day the full length of the intestines were excised and slit open opposite to the attached mesenteric issue. The mucosal surface was rinsed with saline, the ulcers (including perforations) were quantitated in millimeters as described about or by determination of total surface area of lesions. This was accomplished by means of a planimeter (Zidas, Carl Zeiss, West Germany) optically linked to an SR stereo dissecting microscope (Zeiss) with a draw tube attachment. In this example results were expressed as total mm² of ulcerated surface and as percent inhibition of ulceration when treatment was provided. Average values were calculated based upon a minimum of 5 animals per group from at least duplicate experiments. […] Sham vehicle, however, were nontoxic to the animals. Clearly this method is easily adaptable by those skilled in the art to other nonsteroidal anti-inflammatory therapeutic agents and other animals.

[5] = generally shown by others, cited from earlier work; for half-lives: range for the group
[6] = system: rat stomach mucosa; settings: rats dosed with the prostaglandin; cited from earlier work

Molecule | blood level half-lives [5] | half-lives [5] | also measured
COc1ccc2c(c1)c(CC(=O)O)c(C)n2C(=O)c1ccc(Cl)cc1 [Indomethacin in PEG-400, indomethacin] | under four | – | mm ULCERATION [1]: 43.9 mm; % SWELLING REDUCTION [2]: 37.2%; total ulcer length, high reached in individual experiments ([3]; 10 mg indomethacin/kg body weight, P.O.): 45 mm; mm Ulceration + SEM ([3]; indomethacin 2 mg/kg): 1.1 ± 0.3 mm; mm Ulceration + SEM ([3]; indomethacin 4 mg/kg): 3.4 ± 0.8 mm; mm Ulceration + SEM ([3]; indomethacin 6 mg/kg): 9.7 ± 1.2 mm; mm Ulceration + SEM ([3]; indomethacin 8 mg/kg): 22.3 ± 3.4 mm; mm Ulceration + SEM ([3]; indomethacin 10 mg/kg): 23.3 ± 2.6 mm; mm Ulceration + SEM ([3]; indomethacin 10 mg/kg, listed as indomethacin in PEG-400): 25 mm; mortality rate [4]: 20-30%
Cc1cccc(Nc2ccccc2C(=O)O)c1C [Mefenamic acid] | about four | – | –
CC(=O)Oc1ccccc1C(=O)O [acetylsalicylic, Acetylsalicylic Acid (ASA)] | under four | – | –
O=C(O)Cc1ccccc1Nc1c(Cl)cccc1Cl [diclofenac] | under four | – | –
O=C(O)c1cc(-c2ccc(F)cc2F)ccc1O [diflunisal] | – | over ten hours to three days | –
CC(C(=O)O)c1cccc(Oc2ccccc2)c1 (stereo not shown) [fenoprofen] | under four | – | –
Cc1ccc(Cl)c(Nc2ccccc2C(=O)O)c1Cl [meclofenamate] | under four | – | –
CCCCC1C(=O)N(c2ccccc2)N(c2ccccc2)C1=O [phenylbutazone] | – | over ten hours to three days | –
CN1C(C(=O)Nc2ccccn2)=C(O)c2ccccc2S1(=O)=O [piroxicam] | – | over ten hours to three days | –
CC1=C(CC(=O)O)c2cc(F)ccc2/C1=C\c1ccc([S+](C)[O-])cc1 (stereo not shown) [sulindac] | – | over ten hours to three days | –
Cc1ccc(C(=O)c2ccc(CC(=O)O)n2C)cc1 [tolmetin] | under four | – | –
Prostaglandin E₂ | – | – | increase in the major gastric surface protective surfactant [6]: 2-6 fold
